Reference: the CheMixHub viscosity set

Assay: xn = mol fraction of the nth substance listed

Cc1cccc(Cl)c1 + Nc1cccc(Cl)c1
viscosity [mPa·s], 100 kPa
Settings	x2 = 0.0705	x2 = 0.1546	x2 = 0.2565	x2 = 0.3413	x2 = 0.4391	x2 = 0.5101	x2 = 0.6494	x2 = 0.7592	x2 = 0.8887
303.15 K	0.9978	1.301	1.665	1.967	2.313	2.563	3.05	3.431	3.876
308.15 K	0.9306	1.202	1.529	1.8	2.11	2.333	2.769	3.109	3.505
313.15 K	0.8678	1.109	1.398	1.636	1.909	2.106	2.489	2.788	3.137
318.15 K	0.8037	1.014	1.265	1.473	1.71	1.88	2.212	2.471	2.771

CCOCCO + Nc1ccccc1
303.15 K, 101 kPa
Settings	viscosity [mPa·s]
x2 = 0.1062	2.266
x2 = 0.2109	2.394
x2 = 0.3142	2.523
x2 = 0.4162	2.74
x2 = 0.5167	2.94
x2 = 0.616	3.114
x2 = 0.7139	3.277
x2 = 0.8105	3.435
x2 = 0.9059	3.595

C[C@@H](O)[C@H](N)C(=O)[O-].[Na+] + O
viscosity [mPa·s], 101 kPa
Settings	x1 = 0.004484	x1 = 0.008927	x1 = 0.01333	x1 = 0.0177	x1 = 0.02202	x1 = 0.02631	x1 = 0.03478	x1 = 0.0431	x1 = 0.05127
293.15 K	1.122	1.27	1.439	1.636	1.856	2.096	2.659	3.317	4.073
303.15 K	0.9	1.012	1.138	1.279	1.425	1.594	1.993	2.414	2.986
313.15 K	0.734	0.821	0.914	1.024	1.132	1.258	1.55	1.858	2.25
323.15 K	0.612	0.681	0.755	0.84	0.925	1.021	1.242	1.482	1.767

c1ncncn1 + O
viscosity [mPa·s], 101 kPa
Settings	x1 = 9.04e-05	x1 = 0.0001902	x1 = 0.0002698	x1 = 0.0003238	x1 = 0.0005432	x1 = 0.0005796	x1 = 0.0006388
293.15 K	0.9241	0.9097	0.8902	0.8869	0.8968	0.8957	0.8944
298.15 K	0.8187	0.8008	0.7878	0.7742	0.8122	0.8002	0.7864
303.15 K	0.7307	0.7212	0.7162	0.71	0.7263	0.7135	0.6979
